Measured values: ChEMBL document CHEMBL2176972, “Potential use of selective and nonselective Pim kinase inhibitors for cancer therapy” (J Med Chem, 2012)
Values belong to the molecule of their own block, whether it stands above or below them.

Legend:
[1] = molecular target: Serine/threonine-protein kinase pim-2 (Homo sapiens, UniProt Q9P1W9); experiment: Competitive inhibition of PIM2 in presence of ATP
[2] = molecular target: Serine/threonine-protein kinase pim-1 (Homo sapiens, UniProt P11309); experiment: Competitive inhibition of PIM1 using KKRNRTLTV as substrate after 5 mins by scintillation counter in presence of [gamma-32P]ATP
[3] = molecular target: Casein kinase II subunit alpha (Homo sapiens, UniProt P68400); experiment: Competitive inhibition of CK2alpha using RRREDEESDDEE as substrate after 5 mins by scintillation counter in presence of [gamma-32P]ATP
[4] = molecular target: T1, Serine/threonine-protein kinase haspin (Homo sapiens, UniProt Q8TF76); experiment: Inhibition of haspin
T1 sequence (Q8TF76 whole entry): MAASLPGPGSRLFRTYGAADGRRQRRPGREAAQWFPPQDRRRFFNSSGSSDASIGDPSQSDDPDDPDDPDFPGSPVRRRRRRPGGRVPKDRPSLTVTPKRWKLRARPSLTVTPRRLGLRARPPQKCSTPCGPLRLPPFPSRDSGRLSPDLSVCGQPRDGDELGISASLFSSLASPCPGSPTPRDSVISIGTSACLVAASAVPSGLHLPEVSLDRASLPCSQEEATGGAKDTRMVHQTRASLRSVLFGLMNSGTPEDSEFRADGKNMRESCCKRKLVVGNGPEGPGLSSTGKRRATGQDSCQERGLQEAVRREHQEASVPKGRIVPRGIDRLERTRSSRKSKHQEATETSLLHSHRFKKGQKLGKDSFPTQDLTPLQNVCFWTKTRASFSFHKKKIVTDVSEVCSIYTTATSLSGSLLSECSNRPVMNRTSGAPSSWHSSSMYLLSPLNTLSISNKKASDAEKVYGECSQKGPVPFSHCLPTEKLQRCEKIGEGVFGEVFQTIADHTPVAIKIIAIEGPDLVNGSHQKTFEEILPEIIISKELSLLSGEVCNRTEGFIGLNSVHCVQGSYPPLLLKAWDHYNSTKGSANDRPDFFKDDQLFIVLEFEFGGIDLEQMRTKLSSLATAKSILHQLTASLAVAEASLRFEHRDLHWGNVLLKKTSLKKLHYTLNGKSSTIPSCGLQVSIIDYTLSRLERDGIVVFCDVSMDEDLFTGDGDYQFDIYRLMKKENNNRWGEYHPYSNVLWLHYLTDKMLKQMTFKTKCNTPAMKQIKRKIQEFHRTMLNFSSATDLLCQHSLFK

Ki [1]: 100 nM
Compound: O=C1NC(=O)/C(=C/c2cccc(C(F)(F)F)c2)S1

IC50 [2]: 20 nM
IC50 [3]: 63 nM
Compound: O=C(O)c1cc2c(ccc3cc4c(ccc5oc(C(=O)O)cc54)cc32)o1

IC50 [4]: 34 nM
Compound: CN1CCC(CNc2ccc3ncc(-c4cccc(OC(F)(F)F)c4)n3n2)CC1 [SGI-1776]
